Assay results published in PMC12216609, “Inhibitors of eIF1A-ribosome interaction unveil uORF-dependent regulation of translation initiation and antitumor and antiviral effects” (The EMBO Journal, 2025).
Where “and” joins values, the source holds several entries; their conditions need not be identical. Equal entries are not always repeated. Where two headings read alike, the source gives them in different places.

Tests used:
[1] = target: T1, eIF1A without NTT (Homo sapiens, UniProt P47813); assay: Fluorescence binding assay with NTT-truncated eIF1A; conditions: for fluorescence ratio, eIF1A Δ NTT: background-corrected, relative to DMSO or lowest 1Ai concentration, replicate columns
T1 construct: His-bdSUMO (cleaved yes); made in house; host or cells: E. coli (BL-21)

[2] = test system: CUG/GUG vs AUG start codon luciferase reporters in HEK293T cells; assay: Near-cognate AUG starting codon fidelity reporter assay (GUG, CUG vs AUG); assay type: cell-based
[3] = target: NSP1 (Severe acute respiratory syndrome coronavirus 2, UniProt P0DTD1)
[4] = test system: IRF7 5'UTR firefly luciferase reporter in HEK293T cells;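 note: luciferase signal corrected by a co-transfected GFP reporter for transfection efficiency, read after overnight compound exposure, with Long and Short reporters differing in 5'UTR length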
Experimental: For the effect on ribosomal scanning, we used two firefly luciferase reporter genes that differ in their 5'UTR length (Fig. 1C). […] Cells were transfected with these reporters along with a GFP reporter gene used to normalize transfection efficiency. After an overnight 1Ai or DMSO (vehicle control) exposure, luciferase and GFP expression were measured, and normalized activity was determined.
For the reference vs IRF7 5'UTR luciferase reporter assay, HEK239T cells in a 12-well plate were transfected with the previously described IRF7 5'UTR or reference firefly luciferase reported genes (Sehrawat et al, [2019]) (100 ng/well) together with GFP (20 ng/well) that served as an internal control by CaCl2 transfection. After 6 h, half of the growth medium was replaced with a medium containing the different compounds, reaching a final concentration of 20 µM. Twenty-four hours after transfection, transfection efficiency was evaluated using GFP fluorescence intensity (Cytation 5, ex/em: 470/525). Cells were harvested in 50 µL Reported lysis buffer (RLB) and put on a shaker for 10 min. From each well 5 µL were taken in duplicates and tested by luminometer.

[5] = target: T2, eIF1A without CTT (Homo sapiens, UniProt P47813); assay type: binding; conditions: for fluorescence ratio, eIF1A Δ CTT: background-corrected, relative to DMSO or lowest 1Ai concentration, replicate columns
T2 construct: His-bdSUMO (cleaved yes); made in house; host or cells: E. coli (BL-21)
T2 sequence (P47813 1-114 limits assumed): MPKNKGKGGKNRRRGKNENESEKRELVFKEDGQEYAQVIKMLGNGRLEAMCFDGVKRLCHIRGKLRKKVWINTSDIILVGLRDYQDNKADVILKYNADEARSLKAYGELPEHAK

T1 sequence (P47813 31-144 limits assumed): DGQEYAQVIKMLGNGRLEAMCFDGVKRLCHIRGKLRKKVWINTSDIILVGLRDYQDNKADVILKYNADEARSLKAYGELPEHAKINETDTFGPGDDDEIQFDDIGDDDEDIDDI

## CN1CCN(S(=O)(=O)c2ccc(N3Cc4cc5c(cc4C4(CCCC4)C3)OCCO5)nc2)CC1 [1Ai-3564]
[1]; 1Ai conc. 0.25 uM
  fluorescence ratio, eIF1A Δ NTT: 1
[1]; 1Ai conc. 0.5 uM
  fluorescence ratio, eIF1A Δ NTT: 1.007
[1]; 1Ai conc. 1 uM
  fluorescence ratio, eIF1A Δ NTT: 0.9932
[1]; 1Ai conc. 2 uM
  fluorescence ratio, eIF1A Δ NTT: 1.2
[1]; 1Ai conc. 4 uM
  fluorescence ratio, eIF1A Δ NTT: 1.048
[1]; 1Ai conc. 8 uM
  fluorescence ratio, eIF1A Δ NTT: 1.009
[1]; 1Ai conc. 16 uM
  fluorescence ratio, eIF1A Δ NTT: 1.298
[1]; 1Ai conc. 32 uM
  fluorescence ratio, eIF1A Δ NTT: 1.4
[1]; 1Ai conc. 64 uM
  fluorescence ratio, eIF1A Δ NTT: 1.423
[1]; 1Ai conc. 256 uM
  fluorescence ratio, eIF1A Δ NTT: 1.807
[1]; eIF1A Δ NTT, from the titration data, read-out: IC50 (eIF1A Δ NTT titration block)
  IC50: 43.2 µM
[1]; summary table, fluorescence binding assay, read-out: IC50 concentration (µM), NTT truncation
  IC50: 43.2 µM
[2]; NUG experiment
  average CUG and GUG: 6.96
  average CUG and GUG relative to DMSO: 1.543
[2]; NUG experiment, CUG vs AUG reporter
  CUG Average: 10.8773
[2]; NUG experiment, GUG vs AUG reporter
  GUG Average: 3.042
[2]; average CUG and GUG relative to DMSO, 20 µM overnight
  NUG (Final data, Fig. 1E): 1.543
[2]; compound at 20uM, individual repeat
  GUG vs AUG data (%): 2.43% and 3.12% and 4.52% and 2.10%
[2]; compound at 20uM, summary average of repeats, DMSO control average […]
  GUG vs AUG (%) Average: 3.04%
[3]
  GFP reporter ratio nsp1/gfp, avg: 0.5007
  GFP reporter ratio nsp1/gfp, rep 1: 0.5007
  gfp signal, mean of duplicate wells: 362.5
  nsp1 signal, mean of duplicate wells: 181.5
  ratio (nsp1/gfp): 0.501
[4]; 1/Result, relative to DMSO, 20 µM
  Reference vs IRF7 (Final data, Fig. 1E): 1.762
[4]; Long reporter, 20 µM, individual replicates, outliers excluded, DMSO = 1
  LONG (summary - All), normalized to DMSO: 0.26 and 0.60 and 0.49 and 0.43 and 0.25
[4]; Short reporter, 20 µM, individual replicates, outliers excluded, DMSO = 1
  SHORT (summary - All), normalized to DMSO: 0.54 and 0.80 and 0.85 and 0.72 and 0.67
[4]; compound at 20 µM, left data block (Long), source data of Fig 1C
  Long 5'UTR reporter luciferase activity, normalized to DMSO (=1), single replicates: 0.261 and 0.6001 and 0.4877 and 0.4313 and 0.2492
[4]; summary - All, 20 µM
  average ( long vs short ratio): 0.568
[5]
  binding to CTT-truncated eIF1A: compromised
[5]; 1Ai conc. 0.25 uM
  fluorescence ratio, eIF1A Δ CTT: 1.127 and 1.051
[5]; 1Ai conc. 0.5 uM
  fluorescence ratio, eIF1A Δ CTT: 1.14 and 1.091
[5]; 1Ai conc. 1 uM
  fluorescence ratio, eIF1A Δ CTT: 1.087 and 1.0877
[5]; 1Ai conc. 2 uM
  fluorescence ratio, eIF1A Δ CTT: 1.109 and 1.056
[5]; 1Ai conc. 4 uM
  fluorescence ratio, eIF1A Δ CTT: 1.011 and 1.035
[5]; 1Ai conc. 8 uM
  fluorescence ratio, eIF1A Δ CTT: 0.8478 and 0.8594
[5]; 1Ai conc. 16 uM
  fluorescence ratio, eIF1A Δ CTT: 0.8634 and 0.8337
[5]; 1Ai conc. 32 uM
  fluorescence ratio, eIF1A Δ CTT: 0.9829 and 0.8523
[5]; 1Ai conc. 64 uM
  fluorescence ratio, eIF1A Δ CTT: 1.0625 and 1.083
[5]; 1Ai conc. 256 uM
  fluorescence ratio, eIF1A Δ CTT: 1.108 and 1.021
[5]; eIF1A without CTT
  CTT truncation IC50: No binding
[5]; summary table, fluorescence binding assay
  IC50 concentration (µM), CTT truncation: No binding
